Measured values: patent publication US9273077B2, “Phosphorus derivatives as kinase inhibitors” (ARIAD Pharmaceuticals, Inc., priority 2008, dated 2016)

Target: T1, ALK (Homo sapiens, UniProt Q9UM73)
T1 construct: Kinases are expressed as either kinase domains or full length constructs fused to glutathione S-transferase (GST) or polyHistidine tagged fusion proteins; made in house; host or cells: E. coli or Baculovirus-High Five (not specified which for ALK)
Experiment: inhibitory potency against ALK (kinase inhibition assay)
Type: biochemical
From the text: More specifically, the compounds described herein are screened for kinase inhibition activity as follows. Kinases suitable for use in the following protocol include, but are not limited to: ALK, Jak2, b-Raf, c-Met, Tie-2, FLT3, Abl, Lck, Lyn, Src, Fyn, Syk, Zap-70, Itk, Tec, Btk, EGFR, ErbB2, Kdr, FLT1, Tek, InsR, and AKT.
Kinases are expressed as either kinase domains or full length constructs fused to glutathione S-transferase (GST) or polyHistidine tagged fusion proteins in either E. coli or Baculovirus-High Five expression systems. They are purified to near homogeneity by affinity chromatography as previously described (Lehr et al., 1996; Gish et al., 1995). In some instances, kinases are co-expressed or mixed with purified or partially purified regulatory polypeptides prior to measurement of activity.
Kinase activity and inhibition can be measured by established protocols (see e.g., Braunwalder et al., 1996). In such cases, the transfer of ^33PO4 from ATP to the synthetic substrates poly(Glu, Tyr) 4:1 or poly(Arg, Ser) 3:1 attached to the bioactive surface of microtiter plates is taken as a measure of enzyme activity. After an incubation period, the amount of phosphate transferred is measured by first washing the plate with 0.5% phosphoric acid, adding liquid scintillant, and then counting in a liquid scintillation detector. The IC50 is determined by the concentration of compound that causes a 50% reduction in the amount of ^33P incorporated onto the substrate bound to the plate.
For example, in one method, compounds can be tested for their ability to inhibit kinase activity of baculovirus-expressed ALK using a modification of the ELISA protocol reported for trkA in Angeles, T. S. et al., Anal. Biochem. 1996, 236, 49-55, which is incorporated herein by reference. Phosphorylation of the substrate, phopholipase C-gamma (PLC- ? ) generated as a fusion protein with glutathione-S-transferase (GST) as reported in rotin, D. et al., EMBO J. 1992, 11, 559-567, which is incorporated by reference, can be detected with europium-labeled anti-phosphotyrosine antibody and measured by time-resolved fluorescence (TRF). […] Detection of the phosphorylated product can be performed by adding 100 ? L/well of Eu-N1 labeled PT66 antibody (Perkim Elmer #AD0041). Incubation at 37 degrees C. then proceeds for one hour, followed by addition of 100 ? L enhancement solution (for example Wallac #1244-105). The plate is gently agitated and after thirty minutes, the fluorescence of the resulting solution can be measured (for example using EnVision 2100 (or 2102) multilabel plate reader from Perkin Elmer).
Data analysis can then be performed. IC50 values can be calculated by plotting percent inhibition versus log10 of concentration of compound.
The inhibition of ALK tyrosine kinase activity can also be measured using the recombinant kinase domain of the ALK in analogy to VEDG-R kinase assay described in J. Wood et al., Cancer Res 2000, 60, 2178-2189. In vitro enzyme assays using GST-ALK protein tyrosine kinase can be performed in 96-well plate as a filter binding assay in 20 mMTris.HCl, pH 7.5, 3 mM MgCl2, 10 mM MnCl2, […], 0.1 ? Ci/assay (=30 ? L) [ ? -^33P]-ATP, 2 ? M ATP, 3 ? g/mL poly (Glu, tyr 4:1) Poly-EY (sigma P-0275), 1% DMSO, 25 ng ALK enzyme. Assays can be incubated for 10 min, at ambient temperature. Reactions can be terminated by adding 50 ? L of 125 mM EDTA, and the reaction mixture can be transferred onto a MAIP Multiscreen plate (Millipore, Bedford, Mass.) previously wet with methanol, and rehydrated for 5 minutes with water. Following washing (0.5% H3PO4), plates can be counted in a liquid scintillation counter. IC50 values are calculated by linear regression analysis of the percentage inhibition.

T1 sequence (Q9UM73 19-1620): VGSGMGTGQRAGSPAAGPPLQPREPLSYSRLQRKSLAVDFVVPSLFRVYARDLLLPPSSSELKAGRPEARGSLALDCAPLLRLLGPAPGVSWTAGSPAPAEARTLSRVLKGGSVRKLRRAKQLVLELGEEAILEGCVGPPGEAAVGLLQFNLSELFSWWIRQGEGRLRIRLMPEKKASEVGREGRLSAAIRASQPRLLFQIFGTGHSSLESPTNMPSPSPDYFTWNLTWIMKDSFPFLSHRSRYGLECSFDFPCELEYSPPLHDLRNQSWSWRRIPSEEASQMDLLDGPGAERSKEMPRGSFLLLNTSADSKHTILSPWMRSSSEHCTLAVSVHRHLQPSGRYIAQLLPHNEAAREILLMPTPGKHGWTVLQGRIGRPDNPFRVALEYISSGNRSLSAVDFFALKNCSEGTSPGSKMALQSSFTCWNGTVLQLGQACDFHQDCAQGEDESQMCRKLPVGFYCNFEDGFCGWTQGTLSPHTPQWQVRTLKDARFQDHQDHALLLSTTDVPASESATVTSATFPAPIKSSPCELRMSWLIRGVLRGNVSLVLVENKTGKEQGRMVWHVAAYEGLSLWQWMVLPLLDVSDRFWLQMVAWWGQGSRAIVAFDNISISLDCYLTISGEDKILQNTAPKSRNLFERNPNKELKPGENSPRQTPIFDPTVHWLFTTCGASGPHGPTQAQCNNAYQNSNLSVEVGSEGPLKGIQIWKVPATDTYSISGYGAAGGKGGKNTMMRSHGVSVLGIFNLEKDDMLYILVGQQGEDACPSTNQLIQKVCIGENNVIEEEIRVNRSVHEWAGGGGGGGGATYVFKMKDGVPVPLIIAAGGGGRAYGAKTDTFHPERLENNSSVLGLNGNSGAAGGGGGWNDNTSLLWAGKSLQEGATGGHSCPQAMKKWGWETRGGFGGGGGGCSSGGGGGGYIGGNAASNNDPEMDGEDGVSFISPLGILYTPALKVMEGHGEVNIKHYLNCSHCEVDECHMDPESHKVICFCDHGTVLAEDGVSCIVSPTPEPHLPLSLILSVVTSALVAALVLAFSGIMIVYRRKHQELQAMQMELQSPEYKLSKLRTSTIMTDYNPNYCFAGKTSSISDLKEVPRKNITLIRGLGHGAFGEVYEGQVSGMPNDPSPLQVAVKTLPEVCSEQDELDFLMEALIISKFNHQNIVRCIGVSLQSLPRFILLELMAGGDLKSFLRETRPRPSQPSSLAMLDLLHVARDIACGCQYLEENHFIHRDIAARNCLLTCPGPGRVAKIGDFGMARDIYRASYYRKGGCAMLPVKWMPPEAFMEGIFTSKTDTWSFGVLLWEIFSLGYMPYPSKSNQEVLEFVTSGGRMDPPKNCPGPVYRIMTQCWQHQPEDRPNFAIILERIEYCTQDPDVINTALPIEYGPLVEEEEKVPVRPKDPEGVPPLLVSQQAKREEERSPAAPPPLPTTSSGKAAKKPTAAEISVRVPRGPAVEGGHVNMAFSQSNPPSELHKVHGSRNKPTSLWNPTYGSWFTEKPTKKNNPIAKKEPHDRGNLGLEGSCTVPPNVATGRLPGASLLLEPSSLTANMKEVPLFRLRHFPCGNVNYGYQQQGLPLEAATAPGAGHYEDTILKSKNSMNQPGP

SMILES | IC50
CP(C)(=O)c1ccc(Nc2ncc(C(F)(F)F)c(NC34CC5CC(CC(C5)C3)C4)n2)cc1 [Example 2, N^2-[4-(dimethylphosphoryl)phenyl]-N′-(tricyclo[3.3.1.1^3,7]dec-1-yl)-5-(trifluoromethyl)pyrimidine-2,4-diamine] | > 10 nM
CP(C)(=O)c1ccc(Nc2ncc(C(F)(F)F)c(NCCc3ccc(S(N)(=O)=O)cc3)n2)cc1 [Example 5, 4-(2-{[2-{[4-(dimethylphosphoryl)phenyl]amino}-5-(trifluoromethyl)pyrimidin-4-yl]amino}ethyl)benzenesulfonamide] | > 10 nM
CP(C)(=O)c1ccc(Nc2ncc(C(F)(F)F)c(NC3CCCO3)n2)cc1 (stereo not shown) [Example 6, N^2-[4-(dimethylphosphoryl)phenyl]-N^4-(tetrahydrofuran-2-yl)-5-(trifluoromethyl)pyrimidine-2,4-diamine] | > 10 nM
CP(C)(=O)c1ccc(Nc2ncc(C(F)(F)F)c(NN3CC4CCCC4C3)n2)cc1 (stereo not shown) [Example 7, N^2-[4-(dimethylphosphoryl)phenyl]-N^4-(hexahydrocyclopenta[c]pyrrol-2(1H)-yl)-5-(trifluoromethyl)pyrimidine-2,4-diamine] | > 10 nM
CP(C)(=O)c1ccc(Nc2ncc(C(F)(F)F)c(NN3CCOCC3)n2)cc1 [Example 8, N^2-[4-(dimethylphosphoryl)phenyl]-N^4-(morpholin-4-yl)-5-(trifluoromethyl)pyrimidine-2,4-diamine] | > 10 nM
CP(C)(=O)c1ccc(Nc2ncc(C(F)(F)F)c(NCCc3c[nH]c4ccccc34)n2)cc1 [Example 10, N^2-[4-(dimethylphosphoryl)phenyl]-N^4-[2-(1H-indol-3-yl)ethyl]-5-(trifluoromethyl)pyrimidine-2,4-diamine] | > 10 nM
CN1CCN(Nc2nc(Nc3ccc(P(C)(C)=O)cc3)ncc2C(F)(F)F)CC1 [Example 11, N^2-[4(dimethylphosphoryl)phenyl]-N^4-(4-methylpiperazin-1-yl)-5-(trifluoromethyl) pyrimidine-2,4-diamine] | > 10 nM
CP(C)(=O)c1ccc(Nc2ncc(C(F)(F)F)c(NCC34CC5CC(CC(C5)C3)C4)n2)cc1 [Example 12, N^2-[4-(dimethylphosphoryl)phenyl]-N′-(tricyclo[3.3.1.1^3,7]dec-1-ylmethyl)-5-(trifluoromethyl)pyrimidine-2,4-diamine] | > 10 nM
CN1CCN(c2ccc(CNc3nc(Nc4ccc(P(C)(C)=O)cc4)ncc3C(F)(F)F)cc2)CC1 [Example 13, N^2-[4-(dimethylphosphoryl)phenyl]-N^4-[4-(4-methylpiperazin-1-yl)benzyl]-5-(trifluoromethyl)pyrimidine-2,4-diamine] | > 10 nM
Cc1cc(C)cc(Nc2nc(Nc3ccc(P(C)(C)=O)cc3)ncc2C(F)(F)F)c1 [Example 14, N^4-(3,5-dimethylphenyl)-N^2-[4-(dimethylphosphoryl)phenyl]-5(trifluoromethyl)pyrimidine-2,4-diamine] | > 10 nM
COc1cc(P(C)(C)=O)ccc1Nc1ncc(Cl)c(Nc2ccccc2)n1 [Example 15, 5-chloro-N^2-[4-(dimethylphosphoryl)-2-methoxyphenyl]-N^4-phenylpyrimidine-2,4-diamine] | > 10 nM
COc1cc(P(C)(C)=O)ccc1Nc1ncc(C(F)(F)F)c(Nc2ccccc2S(=O)(=O)C(C)C)n1 [Example 16, N^2-[4-(dimethylphosphoryl)-2-methoxyphenyl]-N^4-[2-(propan-2-ylsulfonyl)phenyl]-5-(trifluoromethyl)pyrimidine-2,4-diamine] | 2 to 10 nM
COc1cc(P(C)(C)=O)ccc1Nc1ncc(Cl)c(Nc2ccccc2S(=O)(=O)C(C)C)n1 [Example 17, 5-chloro-N-[4-(dimethylphosphoryl)-2-methoxyphenyl]-N^4-[2-(propan-2-ylsulfonyl)phenyl]pyrimidine-2,4-diamine] | < 2 nM
CC(C)S(=O)(=O)c1ccccc1Nc1nc(Nc2ccc(P(C)(C)=O)cc2)ncc1Cl [Example 18, 5-chloro-N^2-[4-(dimethylphosphoryl)phenyl]-N^4-[2-(propan-2-ylsulfonyl)phenyl]pyrimidine-2,4-diamine] | 2 to 10 nM
COc1cc(N2CCC(N3CCN(C)CC3)CC2)ccc1Nc1ncc(Cl)c(Nc2ccc(P(C)(C)=O)cc2)n1 [Example 19, 5-chloro-N^4-[4-(dimethylphosphoryl)phenyl]-N^2-{2-methoxy-4-[4-(4-methylpiperazin-1-yl)piperidin-1-yl]phenyl}pyrimidine-2,4-diamine] | > 10 nM
COc1cc(P(C)(C)=O)ccc1Nc1nccc(Nc2ccccc2S(=O)(=O)C(C)C)n1 [Example 20, N^2-[4-(dimethylphosphoryl)-2-methoxyphenyl]-N^4-[2-(propan-2-ylsulfonyl)phenyl]pyrimidine-2,4-diamine] | > 10 nM
COc1cc(P(C)(C)=O)ccc1Nc1ncc(C)c(Nc2ccccc2S(=O)(=O)C(C)C)n1 [Example 21, N^2-[4-(Dimethylphosphoryl)-2-methoxyphenyl]-5-methyl-N^4-[2-(propan-2-ylsulfonyl)phenyl]pyrimidine-2,4-diamine] | 2 to 10 nM
COc1ccc(P(C)(C)=O)cc1Nc1ncc(Cl)c(Nc2ccccc2S(=O)(=O)C(C)C)n1 [Example 22, 5-Chloro-N^2-[5-(dimethylphosphoryl)-2-methoxyphenyl]-N^4-[2-(propan-2-ylsulfonyl)phenyl]pyrimidine-2,4-diamine] | 2 to 10 nM
Cc1cc(P(C)(C)=O)ccc1Nc1ncc(Cl)c(Nc2ccccc2S(=O)(=O)C(C)C)n1 [Example 23, 5-Chloro-N^2-[4-(dimethylphosphoryl)-2-methylphenyl]-N-[2-(propan-2-ylsulfonyl)phenyl]pyrimidine-2,4-diamine] | < 2 nM
CCc1cc(P(C)(C)=O)ccc1Nc1ncc(Cl)c(Nc2ccccc2S(=O)(=O)C(C)C)n1 [Example 24, 5-Chloro-N^2-[4-(dimethylphosphoryl)-2-ethylphenyl]-N^4-[2-(propan-2-ylsulfonyl)phenyl]pyrimidine-2,4-diamine] | < 2 nM
CC(C)S(=O)(=O)c1ccccc1Nc1nc(Nc2ccc(P(C)(C)=O)cc2OC(F)(F)F)ncc1Cl [Example 25, 5-Chloro-N^2-[4-(dimethylphosphoryl)-2-(trifluoromethoxy)phenyl]-N^4-[2-(propan-2-ylsulfonyl)phenyl]pyrimidine-2,4-diamine] | < 2 nM
CC(C)S(=O)(=O)c1ccccc1Nc1nc(Nc2ccc(P(C)(C)=O)cc2Cl)ncc1Cl [Example 26, 5-Chloro-N^2-[2-chloro-4-(dimethylphosphoryl)phenyl]-N^4-[2-(propan-2-ylsulfonyl)phenyl]pyrimidine-2,4-diamine] | < 2 nM
CC(C)S(=O)(=O)c1ccccc1Nc1nc(Nc2ccc(P(C)(C)=O)cc2F)ncc1Cl [Example 27, 5-Chloro-N^2-[4-(dimethylphosphoryl)-2-fluorophenyl]-N^4-[2-(propan-2-ylsulfonyl)phenyl]pyrimidine-2,4-diamine] | 2 to 10 nM
COc1cc(P(C)(C)=O)ccc1Nc1ncc(N)c(Nc2ccccc2S(=O)(=O)C(C)C)n1 [Example 28, N^2-[4-(dimethylphosphoryl)-2-methoxyphenyl]-N^4-[2-(propan-2-ylsulfonyl)phenyl]pyrimidine-2,4,5-triamine] | > 10 nM
COc1cc(P(C)(C)=O)ccc1Nc1ncc2[nH]c(=O)n(-c3ccccc3S(=O)(=O)C(C)C)c2n1 [Example 29, 2-{[4-(dimethylphosphoryl)-2-methoxyphenyl]amino}-9-[2-(propan-2-ylsulfonyl)phenyl]-7,9-dihydro-8H-purin-8-one] | > 10 nM
